# Active and inactive are the calls of the source. No cut-off for these calls is given here.
# Assays:
# KB = experiment: Cytotoxicity against human KB cells; assay type: functional; conditions: read-out: ED50 (the source's name)
# P388 [1] = experiment: Cytotoxicity against mouse P388 cells; assay type: functional; conditions: read-out: ED50 (the source's name)
# P388 [2] = experiment: In vivo cytotoxicity against mouse P388 cells at 2.5 to 10 mg/kg; assay type: functional, organism-based
smiles,measurement,setting,value
CC1(C)CC(O)C[C@@]2(C)OC(=O)C=C12 (stereo partly drawn),EC50,KB,10 µg/mL
same,EC50,P388 [1],3.5 µg/mL
same,Activity,P388 [2],inactive

# Source: ChEMBL document CHEMBL1151355, “The isolation of loliolide from an Indian Ocean opisthobranch mollusc” (1980)
